From article PMC11649115, “In vitro safety evaluation of dopamine D3R antagonist, R-VK4-116, as a potential medication for the treatment of opioid use disorder” (PLOS ONE, 2024)
“And” between values parts separate entries of the source, which are not always exact repeats. Equal values may be shown once. Read-outs that look alike come from different tables or passages of the source.

Columns and labels:
CYP2B6 = target: T1, CYP2B6 (Homo sapiens, UniProt P20813); assay: CYP inhibition in human liver microsomes; settings: human liver microsomes
T1 sequence (P20813 1-491): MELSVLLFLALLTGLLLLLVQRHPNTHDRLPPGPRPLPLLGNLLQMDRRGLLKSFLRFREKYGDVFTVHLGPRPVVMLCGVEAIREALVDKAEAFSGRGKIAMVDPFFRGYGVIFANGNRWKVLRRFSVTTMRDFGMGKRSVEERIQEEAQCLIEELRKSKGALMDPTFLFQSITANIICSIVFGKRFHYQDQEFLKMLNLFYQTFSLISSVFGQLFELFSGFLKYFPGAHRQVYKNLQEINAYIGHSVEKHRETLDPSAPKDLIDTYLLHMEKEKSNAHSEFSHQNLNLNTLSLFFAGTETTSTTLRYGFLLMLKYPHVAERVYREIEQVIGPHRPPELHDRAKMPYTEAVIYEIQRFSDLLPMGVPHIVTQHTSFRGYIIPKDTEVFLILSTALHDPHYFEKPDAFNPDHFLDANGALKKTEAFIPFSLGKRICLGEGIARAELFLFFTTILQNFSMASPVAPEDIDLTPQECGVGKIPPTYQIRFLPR

[1] = Plasma protein binding, Sephadex G-25 gel filtration; assay type: in vitro ADME; settings: plasma; for fraction unbound at 2 h, 0.5 μM: nominal 0.5 μM; for fraction unbound at 2 h, 1 μM: nominal 1 μM
Protocol: (§1) The gel filtration used solid-phase extraction columns containing hydrated gel filtration beads (Sephadex G-25). […] In this method, the amount of analyte accompanying the proteins (i.e., protein-bound R-VK4-116) before and after filtration was assayed for analyte concentration by LC-MS/MS.

dog plasma proteins = assay: as above; assay type: in vitro ADME
Protocol: as §1

rat plasma proteins = assay: as above; assay type: in vitro ADME
Protocol: as §1

HepG2 cells = assay: Lysosomal trapping assay (Lyso-ID Red); assay type: cell-based; settings: HepG2, 0.1, 1.0, and 10.0 μM, up to 72 hr
Protocol: After incubation timepoint, the treated cells were washed and incubated with fluorescent dual color detection reagent for 60 min. Subsequently, the fluorescence was measured with Spectramax ID5. An increase in red signal without significant loss (no more than 30%) of the blue signal indicates the accumulation of test article within the cells arising from an increase in lysosome or lysosome-like vesicles in size and/or number. The assay results were presented as fluorescence fold change for red stain and blue stain individually and were calculated as follows: Fluorescencefoldchange=RelativeFluorescenceUnit(RFU)measuredfortestarticleconcentration/RFUmeasuredforrespectivesolventcontrol
The acceptance criteria for significant lysosomal perturbation was a ≥ 2-fold increase in red fluorescence with no loss of blue fluorescence.

[2] = Plasma protein binding, Sephadex G-25 gel filtration; assay type: in vitro ADME, human; settings: human, plasma; for fraction unbound at 2 h, 0.5 μM: human plasma, nominal 0.5 μM
Protocol: as §1

human plasma proteins = assay: as above; assay type: in vitro ADME; settings: human plasma
Protocol: as §1

plasma proteins = assay: as above; assay type: in vitro ADME, human; settings: human, plasma, human plasma, nominal 1 μM; read-out: % Bound, Mean ± SD (converted)
Protocol: as §1

cardiovascular effects = settings: rats, up to 25 mg/kg ref 9; cited from earlier work
OAT1 = target: T2, OAT1 (Homo sapiens, UniProt Q4U2R8); assay: Transporter mediated assay (substrate/inhibitor), MDCK-II cells; assay type: in vitro ADME
T2 construct: expressed in transfected cells; host or cells: MDCK-II cells
T2 sequence (Q4U2R8 1-563): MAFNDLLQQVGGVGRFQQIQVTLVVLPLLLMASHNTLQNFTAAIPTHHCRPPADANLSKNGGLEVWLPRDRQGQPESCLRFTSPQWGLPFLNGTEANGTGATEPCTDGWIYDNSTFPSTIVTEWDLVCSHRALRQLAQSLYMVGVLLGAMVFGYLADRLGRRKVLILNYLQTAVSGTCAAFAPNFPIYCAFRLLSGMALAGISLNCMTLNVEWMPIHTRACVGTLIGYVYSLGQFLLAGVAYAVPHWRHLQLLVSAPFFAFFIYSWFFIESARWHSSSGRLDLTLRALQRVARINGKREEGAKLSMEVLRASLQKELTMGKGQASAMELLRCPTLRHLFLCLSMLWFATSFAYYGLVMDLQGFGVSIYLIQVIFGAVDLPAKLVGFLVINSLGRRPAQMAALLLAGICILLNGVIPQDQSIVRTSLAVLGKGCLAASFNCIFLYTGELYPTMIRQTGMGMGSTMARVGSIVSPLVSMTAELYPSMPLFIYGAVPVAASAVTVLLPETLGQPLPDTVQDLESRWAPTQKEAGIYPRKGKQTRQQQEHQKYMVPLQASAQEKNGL
Protocol: The MDCK-II cells were treated to express the transporter of interest. The transport of each probe substrate was determined by radiometric detection (Fig 1 in S1 File). […] For the uptake assay, the net transporter-mediated uptake-rate (V) of the substrate by each SLC transporter was calculated as follows: Transporter–mediatedupdaterate(pmol/min/cm^2)=(Cellularaccumulationincellsexpressingthetransporter)−(Meancellularaccumulationincontrolcells)/Surfacearea×incubationtime

[3] = Metabolic stability in liver microsomes; settings: rat, pH 7.4
[4] = dog, read-out: % Bound, Mean ± SD (converted)
[5] = rat, read-out: % Bound (converted)
[6] = rat, read-out: % Bound, Mean ± SD (converted)
[7] = heat-inactivated liver microsomes

Compound: CCc1cc(Cl)c(OC)c(N2CCN(CC(O)CCNC(=O)c3cc4ccccc4[nH]3)CC2)c1 (stereo not shown) [R-VK4-116, N-(4-(4-(3-chloro-5-ethyl-2-methoxyphenyl)piperazin-1-yl)-3-hydroxybutyl)-1H-indole-2-carboxamide]
- CYP2B6 inhibition (CYP2B6; up to 100 μM): did not inhibit CYP significantly
- activity at 20 min, 0.1 µM (CYP2B6; human, probe bupropion): 99.6 ± 7.5%
- activity at 20 min, 0.3 µM (CYP2B6; human, probe bupropion): 90.9 ± 2.5%
- activity at 20 min, 1 µM (CYP2B6; human, probe bupropion): 91.2 ± 1.4%
- activity at 20 min, 3 µM (CYP2B6; human, probe bupropion): 99.8 ± 7.6%
- activity at 20 min, 10 µM (CYP2B6; human, probe bupropion): 97.5 ± 6.6%
- activity at 20 min, 30 µM (CYP2B6; human, probe bupropion): 89.3 ± 1.2%
- activity at 20 min, 60 µM (CYP2B6; human, probe bupropion): 91 ± 0.7%
- activity at 20 min, 100 µM (CYP2B6; human, probe bupropion): 97 ± 4.9%
- fraction unbound at 2 h, 0.5 μM [1, 4]: 0.164
- fraction unbound at 2 h, 1 μM [1, 4]: 0.173
- fraction unbound at 2 h, 0.5 μM [1, 5]: 0.164
- fraction unbound at 2 h, 0.5 μM [1, 6]: 0.168
- fraction unbound at 2 h, 1 μM [1, 5]: 0.086
- fraction unbound at 2 h, 1 μM [1, 6]: 0.072
- % Bound (dog plasma proteins; nominal 0.5 μM): 92.1% and 80.8% and 77.9%
- Ratio [R-VK4-116] Before Filtration / Eluate (dog plasma proteins; nominal 0.5 μM): 1.25 and 1.24
- Ratio [R-VK4-116] Before Filtration / Eluate, Mean ± SD (dog plasma proteins; nominal 0.5 μM): 1.25 ± 0.01
- [R-VK4-116] Before Filtration (dog plasma proteins; nominal 0.5 μM): 0.618 µM and 0.616 µM and 0.609 µM
- [R-VK4-116] In Sephadex G-25 Eluate (dog plasma proteins; nominal 0.5 μM): 0.495 µM and 0.493 µM and 0.491 µM
- % Bound (dog plasma proteins; nominal 1 μM): 73.3% and 92.5% and 82.4%
- Ratio [R-VK4-116] Before Filtration / Eluate (dog plasma proteins; nominal 1 μM): 1.68 and 1.51 and 1.77
- Ratio [R-VK4-116] Before Filtration / Eluate, Mean ± SD (dog plasma proteins; nominal 1 μM): 1.65 ± 0.13
- [R-VK4-116] Before Filtration (dog plasma proteins; nominal 1 μM): 1.05 µM and 1.07 µM
- [R-VK4-116] In Sephadex G-25 Eluate (dog plasma proteins; nominal 1 μM): 0.626 µM and 0.707 µM and 0.604 µM
- % Bound (rat plasma proteins; nominal 0.5 μM): 79.3% and 86.7%
- Ratio [R-VK4-116] Before Filtration / Eluate (rat plasma proteins; nominal 0.5 μM): 1.18 and 1.20
- Ratio [R-VK4-116] Before Filtration / Eluate, Mean ± SD (rat plasma proteins; nominal 0.5 μM): 1.19 ± 0.01
- [R-VK4-116] Before Filtration (rat plasma proteins; nominal 0.5 μM): 0.631 µM and 0.630 µM
- [R-VK4-116] In Sephadex G-25 Eluate (rat plasma proteins; nominal 0.5 μM): 0.533 µM and 0.535 µM and 0.525 µM
- % Bound (rat plasma proteins; nominal 1 μM): 93.9% and 93.2%
- Ratio [R-VK4-116] Before Filtration / Eluate (rat plasma proteins; nominal 1 μM): 1.63 and 1.60 and 1.58
- Ratio [R-VK4-116] Before Filtration / Eluate, Mean ± SD (rat plasma proteins; nominal 1 μM): 1.60 ± 0.02
- [R-VK4-116] Before Filtration (rat plasma proteins; nominal 1 μM): 1.03 µM and 1.01 µM and 1.02 µM
- [R-VK4-116] In Sephadex G-25 Eluate (rat plasma proteins; nominal 1 μM): 0.632 µM and 0.647 µM
- red lysosomal stain signal / blue nuclear stain signal over solvent control (HepG2 cells): No significant increase in red lysosomal stain signal or decrease in blue nuclear stain signal
- fraction unbound at 2 h, 0.5 μM ([2]; read-out: % Bound (converted)): 0.026
- fraction unbound at 2 h, 0.5 μM ([2]; read-out: % Bound, Mean ± SD (converted)): 0.028
- fraction unbound at 2 h ([2]; rat, dog, range over human, rat and dog plasma, read-out: bound to plasma proteins): 0.07 to 0.17
- % Bound (human plasma proteins; nominal 0.5 μM): 96.9%
- Ratio [R-VK4-116] Before Filtration / Eluate, Mean ± SD (human plasma proteins; nominal 0.5 μM): 0.988 ± 0.13
- [R-VK4-116] Before Filtration (human plasma proteins; nominal 0.5 μM): 0.550 µM and 0.597 µM and 0.598 µM
- [R-VK4-116] In Sephadex G-25 Eluate (human plasma proteins; nominal 0.5 μM): 0.520 µM and 0.715 µM and 0.557 µM
- % Bound (human plasma proteins; nominal 1 μM): 92.5% and 81.6% and 83.7%
- Ratio [R-VK4-116] Before Filtration / Eluate (human plasma proteins; nominal 1 μM): 1.50 and 1.62 and 1.55
- Ratio [R-VK4-116] Before Filtration / Eluate, Mean ± SD (human plasma proteins; nominal 1 μM): 1.56 ± 0.06
- [R-VK4-116] Before Filtration (human plasma proteins; nominal 1 μM): 0.923 µM and 0.995 µM and 1.02 µM
- [R-VK4-116] In Sephadex G-25 Eluate (human plasma proteins; nominal 1 μM): 0.614 µM and 0.615 µM and 0.657 µM
- fraction unbound at 2 h, 1 μM (plasma proteins): 0.141
- potentiation of the cardiovascular effects of cocaine or oxycodone (cardiovascular effects): did not potentiate
- fold difference in mean uptake rate (substrate test) (OAT1; OAT1, 1 μM, transporter cells vs control cells): < 2 fold
- Inhibition (%) (OAT1; OAT1, 0.1% BSA, 10 μM): no statistically significant inhibition
- inhibition at 10 µM (OAT1; human, polarized monolayer of MDCK-II cells expressing OAT1, OAT1, 0.1% BSA, 10 μM): 8.97 ± 1.58%
- remaining at 0 h, 1 μM [3, 7]: 100%
- remaining at 0 h, 10 μM [3, 7]: 100%
- remaining at 2 h, 1 μM [3, 7]: 94.9%
- remaining at 2 h, 10 μM [3, 7]: 95.4%
- remaining at 0 h, 1 μM ([3]; liver microsomes): 100%
- remaining at 0 h, 10 μM ([3]; liver microsomes): 100%
- remaining at 0.5 h, 1 μM ([3]; liver microsomes): 79.4%
- remaining at 0.5 h, 10 μM ([3]; liver microsomes): 87.1%
- remaining at 1 h, 1 μM ([3]; liver microsomes): 56.8%
- remaining at 1 h, 10 μM ([3]; liver microsomes): 79.7%
- remaining at 1.5 h, 1 μM ([3]; liver microsomes): 45.5%
- remaining at 1.5 h, 10 μM ([3]; liver microsomes): 73.3%
- remaining at 2 h, 1 μM ([3]; liver microsomes): 37.5%
- remaining at 2 h, 10 μM ([3]; liver microsomes): 69.4%
